Measured values: patent publication US20260201008A1, “SECRETIN-DERIVED GLP1R SELECTIVE AGONISTS” (GUBRA A/S, priority 2023, published 2026)
Read-outs that look alike come from different tables or passages of the source. Numbered stars: 1 amine (or outer) side, 2 acyl side, 3 side chain; on linkers, the order of the positions; unused ones are H or OH. Square brackets hold non-standard residues; d marks the D form. Side chains are listed from the residue outwards. Peptide text beside a SMILES is read from it. * marks the point of attachment. C20 diacid = O=C(O)CCCCCCCCCCCCCCCCCCC(=O)*; γGlu = O=C(O)[C@H](CCC(=O)[*:2])N[*:1]; AEEA = NCCOCCOCC(=O)O; Aib = CC(C)(N)C(=O)O

Legend:
GLP1R = GLP1R (Homo sapiens, UniProt P43220); experiment: hGLP1R potency, cAMP accumulation in CHO-K1 cells stably overexpressing hGLP1R; assay type: cell-based; design: host or cells: CHO-K1; conditions: for EC50: cAMP accumulation; for SCTR EC50/GLP1R EC50 ratio: cAMP accumulation in CHO-K1 cells
Procedure, shortened: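 2000 cells/well, DPBS + 0.05% casein + 0.5 mM IBMX; 30 min RT stimulation; HTRF cAMP detection after 1 h. Purified: 3-fold ×11, n=2; crude: 10-fold ×5, n=1. EC50 by variable-slope fit.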

SCTR = SCTR (Homo sapiens, UniProt P47872); experiment: hSCTR potency, cAMP accumulation in CHO-K1 cells stably overexpressing hSCTR; assay type: cell-based; design: alternatively Euroscreen ES-712-AF; FAST-0161L; host or cells: CHO-K1; conditions: cAMP accumulation
Procedure, shortened: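 Thawed CHO-K1 cells carrying stable hSCTR are plated into casein/IBMX buffer (0.05%, 0.5 mM), dosed immediately for 30 min at room temperature, then cAMP is detected by TR-FRET. Purified peptides run as 11 three-fold dilutions in duplicate, and curves are fitted with variable slope.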

[1] = Fibril formation of crude library peptides (Thioflavin T); assay type: physicochemical; design: key: average ThT fluorescence emission at 480 nm (ex 450 nm), raw units; conditions: Physical stability of peptides
Procedure, shortened: (§1)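 Turbidity is the absorbance at 600 nm, taken before heating. Fibril signal is the mean ThT emission at 480 nm (450 nm excitation), read every 10 min over 72 h at 40° C with 700 rpm shaking between reads. Peptides at 267 μM, pH 4.0 acetate or pH 7.0 phosphate buffer (50 mM), 4 μM ThT final.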

[2] = Turbidity of crude library peptides (absorbance at 600 nm); assay type: physicochemical; conditions: Physical stability of peptides
Procedure, shortened: as §1

[3] = CHO-K1 cells overexpressing hGLP1R, read-out: hGLP1R pEC50 (converted)
[4] = selectivity for hGLP1R over hSCTR
[5] = CHO-K1 cells overexpressing hSCTR, read-out: hSCTR pEC50 (converted)

Sequence of GLP1R (P43220 24-463): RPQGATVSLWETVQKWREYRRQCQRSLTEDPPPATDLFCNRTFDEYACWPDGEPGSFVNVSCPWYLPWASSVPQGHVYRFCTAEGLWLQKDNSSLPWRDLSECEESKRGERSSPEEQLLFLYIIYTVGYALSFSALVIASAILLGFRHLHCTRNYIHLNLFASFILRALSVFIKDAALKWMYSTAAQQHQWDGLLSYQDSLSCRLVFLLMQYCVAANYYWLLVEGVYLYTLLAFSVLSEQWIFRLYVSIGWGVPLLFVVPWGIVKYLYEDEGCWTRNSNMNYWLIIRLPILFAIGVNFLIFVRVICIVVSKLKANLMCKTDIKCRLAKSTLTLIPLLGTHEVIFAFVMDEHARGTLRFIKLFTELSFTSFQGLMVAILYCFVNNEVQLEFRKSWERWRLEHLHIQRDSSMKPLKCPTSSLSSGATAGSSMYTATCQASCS
Sequence of SCTR (P47872 23-440): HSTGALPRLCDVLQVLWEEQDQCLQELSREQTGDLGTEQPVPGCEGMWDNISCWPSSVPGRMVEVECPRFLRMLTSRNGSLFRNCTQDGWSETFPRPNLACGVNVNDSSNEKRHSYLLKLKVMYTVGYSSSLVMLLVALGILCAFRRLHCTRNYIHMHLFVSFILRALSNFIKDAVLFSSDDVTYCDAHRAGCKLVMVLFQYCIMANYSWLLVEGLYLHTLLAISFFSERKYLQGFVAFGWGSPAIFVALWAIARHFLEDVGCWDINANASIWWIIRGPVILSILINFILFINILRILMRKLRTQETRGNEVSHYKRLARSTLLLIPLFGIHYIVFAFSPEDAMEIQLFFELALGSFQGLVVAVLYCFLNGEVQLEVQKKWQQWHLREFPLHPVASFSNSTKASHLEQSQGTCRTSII

Row | SMILES | EC50 (GLP1R; [3]) [nM] | SCTR EC50/GLP1R EC50 ratio (GLP1R; [4]) | EC50 (SCTR; [5]) [nM] | Fibril formation [1] | Turbidity (pH 7) [2] | EC50 (GLP1R; CHO-K1 cells stably overexpressing hGLP1R, read-out: hGLP1R potency (pEC50) (converted)) [nM] | SCTR EC50/GLP1R EC50 ratio (GLP1R; selectivity ratio, hSCTR vs hGLP1R) | EC50 (SCTR; CHO-K1 cells stably overexpressing hSCTR, read-out: hSCTR potency (pEC50) (converted)) [nM]
1 | CC(C)C[C@H](NC(=O)[C@H](Cc1ccccc1)NC(=O)[C@H](CCCNC(=N)N)NC(=O)[C@H](CCC(N)=O)NC(=O)[C@H](CC(C)C)NC(=O)C(C)(C)NC(=O)[C@H](C)NC(=O)[C@H](CCC(=O)O)NC(=O)[C@H](CCC(=O)O)NC(=O)[C@H](Cc1ccc(O)cc1)NC(=O)[C@H](CC(C)C)NC(=O)[C@H](Cc1ccc(O)cc1)NC(=O)[C@H](CO)NC(=O)[C@@H](NC(=O)[C@H](CC(=O)O)NC(=O)[C@H](CO)NC(=O)[C@@H](NC(=O)[C@H](Cc1ccccc1)NC(=O)[C@@H](NC(=O)CNC(=O)[C@H](CCC(=O)O)NC(=O)C(C)(C)NC(=O)[C@@H](N)Cc1c[nH]cn1)[C@@H](C)O)[C@@H](C)O)C(C)C)C(=O)N[C@@H](CCC(=O)O)C(=O)N[C@@H](CCCCNC(=O)COCCOCCNC(=O)COCCOCCNC(=O)CC[C@H](NC(=O)CCCCCCCCCCCCCCCCCCC(=O)O)C(=O)O)C(=O)N[C@@H](CC(C)C)C(=O)N[C@H](C(N)=O)C(C)C [compound 143] (H-H[Aib]EGTFTSDVSYLYEEA[Aib]LQRFLEK([AEEA-AEEA-γGlu-C20 diacid])LV-NH2) | 0.01 | 88736 | 794 | 5733 | 0.08 | – | – | –
2 | CC(C)C[C@H](NC(=O)[C@H](Cc1ccccc1)NC(=O)[C@H](CCCNC(=N)N)NC(=O)[C@H](CCC(N)=O)NC(=O)[C@H](CC(C)C)NC(=O)C(C)(C)NC(=O)[C@H](C)NC(=O)[C@H](CCC(=O)O)NC(=O)[C@H](CCC(=O)O)NC(=O)[C@H](CCCCNC(=O)COCCOCCNC(=O)COCCOCCNC(=O)CC[C@H](NC(=O)CCCCCCCCCCCCCCCCCCC(=O)O)C(=O)O)NC(=O)[C@H](CC(C)C)NC(=O)[C@H](CC(C)C)NC(=O)[C@H](CO)NC(=O)[C@@H](NC(=O)[C@H](CC(=O)O)NC(=O)[C@H](CO)NC(=O)[C@@H](NC(=O)[C@H](Cc1ccccc1)NC(=O)[C@@H](NC(=O)CNC(=O)[C@H](CCC(=O)O)NC(=O)C(C)(C)NC(=O)[C@@H](N)Cc1c[nH]cn1)[C@@H](C)O)[C@@H](C)O)C(C)C)C(=O)N[C@@H](CCC(=O)O)C(=O)N[C@@H](Cc1c[nH]cn1)C(=O)N[C@@H](CC(C)C)C(=O)N[C@H](C(N)=O)C(C)C [compound 149] (H-H[Aib]EGTFTSDVSLLK([AEEA-AEEA-γGlu-C20 diacid])EEA[Aib]LQRFLEHLV-NH2) | 0.0126 | 2619 | 31.6 | 2878 | 0.08 | – | – | –
3 | CC[C@H](C)[C@H](NC(=O)[C@H](Cc1ccccc1)NC(=O)[C@H](CCCNC(=N)N)NC(=O)[C@H](CCC(N)=O)NC(=O)[C@H](CC(C)C)NC(=O)[C@H](C)NC(=O)[C@H](C)NC(=O)CNC(=O)[C@H](CCC(=O)O)NC(=O)[C@H](CC(C)C)NC(=O)[C@H](CC(C)C)NC(=O)[C@H](Cc1ccccc1)NC(=O)[C@H](CO)NC(=O)[C@H](Cc1c[nH]c2ccccc12)NC(=O)[C@H](CC(=O)O)NC(=O)[C@H](CO)NC(=O)[C@@H](NC(=O)[C@H](Cc1ccccc1)NC(=O)[C@@H](NC(=O)CNC(=O)[C@H](CCC(=O)O)NC(=O)C(C)(C)NC(=O)[C@@H](N)Cc1c[nH]cn1)[C@@H](C)O)[C@@H](C)O)C(=O)N[C@@H](CCC(N)=O)C(=O)N[C@@H](Cc1c[nH]c2ccccc12)C(=O)N[C@@H](CC(C)C)C(=O)N[C@H](C(N)=O)C(C)C [compound 190] (H-H[Aib]EGTFTSDWSFLLEGAALQRFIQWLV-NH2) | – | – | – | 260000 | 0.61 | 0.0631 | 1844 | 100
4 | CC(C)C[C@H](NC(=O)[C@H](Cc1ccccc1)NC(=O)[C@H](CCCNC(=N)N)NC(=O)[C@H](CCC(N)=O)NC(=O)[C@H](CC(C)C)NC(=O)C(C)(C)NC(=O)[C@H](C)NC(=O)[C@H](CCC(=O)O)NC(=O)[C@H](CCC(=O)O)NC(=O)[C@H](CCCCNC(=O)COCCOCCNC(=O)COCCOCCNC(=O)CC[C@H](NC(=O)CCCCCCCCCCCCCCCCCCC(=O)O)C(=O)O)NC(=O)[C@H](CC(C)C)NC(=O)[C@@H]1CCCN1C(=O)[C@H](CO)NC(=O)[C@@H](NC(=O)[C@H](CC(=O)O)NC(=O)[C@H](CO)NC(=O)[C@@H](NC(=O)[C@H](Cc1ccccc1)NC(=O)[C@@H](NC(=O)CNC(=O)[C@H](CCC(=O)O)NC(=O)C(C)(C)NC(=O)[C@@H](N)Cc1c[nH]cn1)[C@@H](C)O)[C@@H](C)O)C(C)C)C(=O)N[C@@H](CCC(=O)O)C(=O)N[C@@H](Cc1c[nH]cn1)C(=O)N[C@@H](CC(C)C)C(=O)N[C@H](C(N)=O)C(C)C [compound 140] (H-H[Aib]EGTFTSDVSPLK([AEEA-AEEA-γGlu-C20 diacid])EEA[Aib]LQRFLEHLV-NH2) | 1.26 | 14381 | 20000 | 2733 | 0.08 | – | – | –

Results, then the compound that gave them:

Row | EC50 (GLP1R; [3]) [nM] | SCTR EC50/GLP1R EC50 ratio (GLP1R; [4]) | EC50 (SCTR; [5]) [nM] | Fibril formation [1] | Turbidity (pH 7) [2] | EC50 (GLP1R; CHO-K1 cells stably overexpressing hGLP1R, read-out: hGLP1R potency (pEC50) (converted)) [nM] | SCTR EC50/GLP1R EC50 ratio (GLP1R; selectivity ratio, hSCTR vs hGLP1R) | EC50 (SCTR; CHO-K1 cells stably overexpressing hSCTR, read-out: hSCTR potency (pEC50) (converted)) [nM] | SMILES
5 | 0.00501 | 996093 | 5010 | 2709 | 0.09 | – | – | – | CC(C)C[C@H](NC(=O)[C@H](Cc1ccccc1)NC(=O)[C@H](CCCNC(=N)N)NC(=O)[C@H](CCC(N)=O)NC(=O)[C@H](CC(N)=O)NC(=O)C(C)(C)NC(=O)[C@H](C)NC(=O)[C@H](CCC(=O)O)NC(=O)[C@H](CCC(=O)O)NC(=O)[C@H](CCCCNC(=O)COCCOCCNC(=O)COCCOCCNC(=O)CC[C@H](NC(=O)CCCCCCCCCCCCCCCCCCC(=O)O)C(=O)O)NC(=O)[C@H](CC(C)C)NC(=O)[C@H](Cc1ccc(O)cc1)NC(=O)[C@H](CO)NC(=O)[C@@H](NC(=O)[C@H](CC(=O)O)NC(=O)[C@H](CO)NC(=O)[C@@H](NC(=O)[C@H](Cc1ccccc1)NC(=O)[C@@H](NC(=O)CNC(=O)[C@H](CCC(=O)O)NC(=O)C(C)(C)NC(=O)[C@@H](N)Cc1c[nH]cn1)[C@@H](C)O)[C@@H](C)O)C(C)C)C(=O)N[C@@H](CCC(=O)O)C(=O)N[C@@H](Cc1c[nH]cn1)C(=O)N[C@@H](CC(C)C)C(=O)N[C@H](C(N)=O)C(C)C [compound 131] (H-H[Aib]EGTFTSDVSYLK([AEEA-AEEA-γGlu-C20 diacid])EEA[Aib]NQRFLEHLV-NH2)
6 | 0.01 | 111764 | 1000 | 10901 | 0.08 | – | – | – | CC(C)C[C@H](NC(=O)[C@H](Cc1ccccc1)NC(=O)[C@H](CCCNC(=N)N)NC(=O)[C@H](CCC(N)=O)NC(=O)[C@H](CCC(N)=O)NC(=O)[C@H](C)NC(=O)[C@H](C)NC(=O)C(C)(C)NC(=O)[C@H](CCC(=O)O)NC(=O)[C@H](CCCCNC(=O)COCCOCCNC(=O)COCCOCCNC(=O)CC[C@H](NC(=O)CCCCCCCCCCCCCCCCCCC(=O)O)C(=O)O)NC(=O)[C@H](CC(C)C)NC(=O)[C@H](Cc1ccc(O)cc1)NC(=O)[C@H](CO)NC(=O)[C@@H](NC(=O)[C@H](CC(=O)O)NC(=O)[C@H](CO)NC(=O)[C@@H](NC(=O)[C@H](Cc1ccccc1)NC(=O)[C@@H](NC(=O)CNC(=O)[C@H](CCC(=O)O)NC(=O)C(C)(C)NC(=O)[C@@H](N)Cc1c[nH]cn1)[C@@H](C)O)[C@@H](C)O)C(C)C)C(=O)N[C@@H](CCC(=O)O)C(=O)N[C@@H](Cc1c[nH]cn1)C(=O)N[C@@H](CC(C)C)C(=O)N[C@H](C(N)=O)C(C)C [compound 94] (H-H[Aib]EGTFTSDVSYLK([AEEA-AEEA-γGlu-C20 diacid])E[Aib]AAQQRFLEHLV-NH2)
